Results taken from patent US9642869B2, “Boronic acid derivatives and therapeutic uses thereof” (Rempex Pharmaceuticals, Inc., priority 2013, dated 2017).
Where two headings read alike, the source gives them in different places.

Tests used:
CMY-6 EC1010 = assay: Aztreonam potentiation (MPC@4); format: cell-based; conditions: minimum BLI concentration inhibiting growth with 4 μg/mL aztreonam
CTX-M-15 KP1009 [1] = format: cell-based
TEM-10 ec302 = format: cell-based
ECL1002 [2] = assay: Aztreonam potentiation (MPC@4); format: cell-based; conditions: minimum BLI concentration inhibiting growth with 4 μg/mL aztreonam
CTX-M-14 KP1005 = format: cell-based
[3] = Intravenous pharmacokinetics; format: in vivo; conditions: rat, plasma, rats, IV infusion over 0.5 hours, read-out: Free Cl (converted)
Protocol: Rats (n=3 per compound) were administered by a single infusion. IV doses were infused over 0.5 hours via an indwelling femoral vein cannula. Plasma (˜0.3 mL) samples were collected from each rat at designated time points up to 24 hours. Blood samples were centrifuged within 5 min of collection at 12000 g for 5 min to obtain plasma. The plasma samples were stored at −80° C. until analyzed. Data were analyzed using WinNonlin.

SHV-5 ec308 [4] = format: cell-based; conditions: minimum BLI concentration inhibiting growth with tigemonam at 4 μg/mL
SHV-12 = SHV-12 (Klebsiella pneumoniae, UniProt P0AD64, E235K/G234S/L31Q); assay: Inhibition of nitrocefin cleavage by purified enzyme (Ki); format: biochemical; conditions: nitrocefin reporter substrate, 10 min preincubation; read-out: Ki (SHV-12, NCF)
SHV-12, sequence (P0AD64 22-286 L31Q/G234S/E235K): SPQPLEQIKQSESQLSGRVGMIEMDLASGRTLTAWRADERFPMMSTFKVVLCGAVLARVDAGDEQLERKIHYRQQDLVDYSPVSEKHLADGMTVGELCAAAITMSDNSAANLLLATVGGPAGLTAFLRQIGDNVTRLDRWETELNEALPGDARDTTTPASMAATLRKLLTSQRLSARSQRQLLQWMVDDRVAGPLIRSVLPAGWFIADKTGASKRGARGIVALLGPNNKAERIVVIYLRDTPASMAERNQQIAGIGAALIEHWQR
Protocol: Purified enzymes were mixed with various concentrations of inhibitors in reaction buffer and incubated for 10 min at room temperature. Nitrocefin was added and substrate cleavage profiles were recorded at 490 nm every 10 sec for 10 min.

SHV-5 ec308 [5] = assay: Aztreonam potentiation (MPC@4); format: cell-based; conditions: minimum BLI concentration inhibiting growth with 4 μg/mL aztreonam
ECL1002 [6] = format: cell-based; conditions: minimum BLI concentration inhibiting growth with tigemonam at 4 μg/mL
KP1004 KPC-2 = assay: Biapenem potentiation (MPC@1); format: cell-based; conditions: minimum BLI concentration inhibiting growth with 1 μg/mL biapenem
Protocol: (§1) Biapenem was present in the test medium at 1 μg/mL. […] Table 3 summarizes the BLI potency of biapenem potentiation (MPC@1) for two strains overexpressing class A (KPC) and class D (OXA-48) carbapenemases. Biapenem MIC for each strain is also shown.

OXA-48 KP1086 = assay: Biapenem potentiation (MPC@1); format: cell-based; conditions: minimum BLI concentration inhibiting growth with 1 μg/mL biapenem
Protocol: as §1

KPC-2 KP1004 = assay: Aztreonam potentiation (MPC@4); format: cell-based; conditions: minimum BLI concentration inhibiting growth with 4 μg/mL aztreonam
CTX-M-15 KP1009 [7] = assay: Aztreonam potentiation (MPC@4); format: cell-based; conditions: minimum BLI concentration inhibiting growth with 4 μg/mL aztreonam

Compound	AZT MPC4 CMY-6 EC1010 (CMY-6 EC1010)	TIG MPC4 CTX-M-15 KP1009 (CTX-M-15 KP1009 [1])	TIG MPC4 TEM-10 ec302 (TEM-10 ec302)	AZT MPC4 ECL1002 (ECL1002 [2])	TIG MPC4 CTX-M-14 KP1005 (CTX-M-14 KP1005)	clearance ([3]; dose 20 mg/kg) [mL/min/kg]	TIG MPC4 SHV-5 ec308 (SHV-5 ec308 [4])	Ki (SHV-12) [nM]	AZT MPC4 SHV-5 ec308 (SHV-5 ec308 [5])	TIG MPC4 ECL1002 (ECL1002 [6])	BPM MPC1 KP1004 KPC-2 (KP1004 KPC-2)	BPM MPC1 OXA-48 KP1086 (OXA-48 KP1086)	AZT MPC4 KPC-2 KP1004 (KPC-2 KP1004)	AZT MPC4 CTX-M-15 KP1009 (CTX-M-15 KP1009 [7])	clearance ([3]; dose 10 mg/kg) [mL/min/kg]
O=C(CSC(F)F)N[C@H]1Cc2cccc(C(=O)O)c2OB1O [Compound 3, (R)-3-(2-(difluoromethylthio)acetamido)-2-hydroxy-3,4-dihydro-2H-benzo[e][1,2]oxaborinine-8-carboxylic acid]	X (MIC of less than 1 μg/mL)	X (key: X: MIC of less than 1 μg/mL; Y: MIC of 1 μg/mL to 10 μg/mL; Z: MIC of greater than 10 μg/mL)	Y (key: X: MIC of less than 1 μg/mL; Y: MIC of 1 μg/mL to 10 μg/mL; Z: MIC of greater than 10 μg/mL)	Y (MIC of 1 μg/mL to 10 μg/mL)	X (key: X: MIC of less than 1 μg/mL; Y: MIC of 1 μg/mL to 10 μg/mL; Z: MIC of greater than 10 μg/mL)	40.8	X (MIC of less than 1 μg/mL)	< 1	X (MIC of less than 1 μg/mL)	Y (MIC of 1 μg/mL to 10 μg/mL)	X (MIC of less than 1 μg/mL)	Y (MIC of 1 μg/mL to 10 μg/mL)	Y (MIC of 1 μg/mL to 10 μg/mL)		
O=CN[C@H]1Cc2cccc(C(=O)O)c2OB1O [Compound 4, (R)-3-formamido-2-hydroxy-3,4-dihydro-2H-benzo[e][1,2]oxaborinine-8-carboxylic acid]		Y (key: X: MIC of less than 1 μg/mL; Y: MIC of 1 μg/mL to 10 μg/mL; Z: MIC of greater than 10 μg/mL)	Z (key: X: MIC of less than 1 μg/mL; Y: MIC of 1 μg/mL to 10 μg/mL; Z: MIC of greater than 10 μg/mL)	Y (MIC of 1 μg/mL to 10 μg/mL)	Y (key: X: MIC of less than 1 μg/mL; Y: MIC of 1 μg/mL to 10 μg/mL; Z: MIC of greater than 10 μg/mL)	28.8	Y (MIC of 1 μg/mL to 10 μg/mL)	1 to 10	Y (MIC of 1 μg/mL to 10 μg/mL)	X (MIC of less than 1 μg/mL)	X (MIC of less than 1 μg/mL)	Y (MIC of 1 μg/mL to 10 μg/mL)	X (MIC of less than 1 μg/mL)	Y (MIC of 1 μg/mL to 10 μg/mL)	
O=C(Cc1cccs1)N[C@H]1Cc2cccc(C(=O)O)c2OB1O [CPD A, reference compound]	Y (MIC of 1 μg/mL to 10 μg/mL)	Y (key: X: MIC of less than 1 μg/mL; Y: MIC of 1 μg/mL to 10 μg/mL; Z: MIC of greater than 10 μg/mL)	Z (key: X: MIC of less than 1 μg/mL; Y: MIC of 1 μg/mL to 10 μg/mL; Z: MIC of greater than 10 μg/mL)	Y (MIC of 1 μg/mL to 10 μg/mL)	Y (key: X: MIC of less than 1 μg/mL; Y: MIC of 1 μg/mL to 10 μg/mL; Z: MIC of greater than 10 μg/mL)		Y (MIC of 1 μg/mL to 10 μg/mL)	< 1	X (MIC of less than 1 μg/mL)	Y (MIC of 1 μg/mL to 10 μg/mL)	X (MIC of less than 1 μg/mL)	Y (MIC of 1 μg/mL to 10 μg/mL)	Y (MIC of 1 μg/mL to 10 μg/mL)	Y (MIC of 1 μg/mL to 10 μg/mL)	
[N-]=[N+]=NCC(=O)N[C@H]1Cc2cccc(C(=O)O)c2OB1O [Compound 8, (R)-3-(2-azidoacetamido)-2-hydroxy-3,4-dihydro-2H-benzo[e][1,2]oxaborinine-8-carboxylic acid]		X (key: X: MIC of less than 1 μg/mL; Y: MIC of 1 μg/mL to 10 μg/mL; Z: MIC of greater than 10 μg/mL)		Y (MIC of 1 μg/mL to 10 μg/mL)	X (key: X: MIC of less than 1 μg/mL; Y: MIC of 1 μg/mL to 10 μg/mL; Z: MIC of greater than 10 μg/mL)		Y (MIC of 1 μg/mL to 10 μg/mL)	< 1	X (MIC of less than 1 μg/mL)	X (MIC of less than 1 μg/mL)	X (MIC of less than 1 μg/mL)	Y (MIC of 1 μg/mL to 10 μg/mL)	X (MIC of less than 1 μg/mL)		35
Nc1nnc(C(=O)N[C@H]2Cc3cccc(C(=O)O)c3OB2O)s1 [Compound 19, (R)-3-(5-amino-1,3,4-thiadiazole-2-carboxamido)-2-hydroxy-3,4-dihydro-2H-benzo[e][1,2]oxaborinine-8-carboxylic acid]	X (MIC of less than 1 μg/mL)	Y (key: X: MIC of less than 1 μg/mL; Y: MIC of 1 μg/mL to 10 μg/mL; Z: MIC of greater than 10 μg/mL)	Y (key: X: MIC of less than 1 μg/mL; Y: MIC of 1 μg/mL to 10 μg/mL; Z: MIC of greater than 10 μg/mL)	Y (MIC of 1 μg/mL to 10 μg/mL)	Y (key: X: MIC of less than 1 μg/mL; Y: MIC of 1 μg/mL to 10 μg/mL; Z: MIC of greater than 10 μg/mL)		X (MIC of less than 1 μg/mL)	< 1	X (MIC of less than 1 μg/mL)	Y (MIC of 1 μg/mL to 10 μg/mL)	X (MIC of less than 1 μg/mL)	Y (MIC of 1 μg/mL to 10 μg/mL)	Y (MIC of 1 μg/mL to 10 μg/mL)		20.8
O=C(N[C@H]1Cc2cccc(C(=O)O)c2OB1O)c1cccnc1 [Compound 12, (R)-2-hydroxy-3-(nicotinamido)-3,4-dihydro-2H-benzo[e][1,2]oxaborinine-8-carboxylic acid]		Y (key: X: MIC of less than 1 μg/mL; Y: MIC of 1 μg/mL to 10 μg/mL; Z: MIC of greater than 10 μg/mL)		X (MIC of less than 1 μg/mL)	Y (key: X: MIC of less than 1 μg/mL; Y: MIC of 1 μg/mL to 10 μg/mL; Z: MIC of greater than 10 μg/mL)		Y (MIC of 1 μg/mL to 10 μg/mL)	< 1	Y (MIC of 1 μg/mL to 10 μg/mL)	X (MIC of less than 1 μg/mL)	X (MIC of less than 1 μg/mL)	Y (MIC of 1 μg/mL to 10 μg/mL)	Y (MIC of 1 μg/mL to 10 μg/mL)		45.7
